Consider 18 molecules from US8841513B2, “Procedure for producing transgenic plants providing high starch content and yield and high amylose/amylopectin balance” (priority 2008, dated 2014).

Read-outs that look alike come from different tables or passages of the source.

Assay [1] has as its target T1, GP of E. coli (Escherichia coli, UniProt P0AC86, E280D/L281V).
T1 construct: His tag (pET-15b) (N); made in house; host or cells: E. coli BL21 (DE3) C43 transformed with pET15b-glgP (CECT 7071)
Kind of assay: Substrate specificity of GP of E. coli (products by HPLC with amperometric detection). Format: biochemical. On the procedure:
The enzymatic reactions were carried out at 37° C. GP activities were measured in the sense of the analysed polyglucan degradation. […] The reaction was stopped after boiling for 2 minutes and centrifuging at 30,000 g for 20 minutes. The existing released G1P in the supernatant was determined by any of the following methods: • By spectrophotometry. 300 μL of mixture containing Hepes 50 mM pH 7, EDTA 1 mM, MgCl2 2 mM, KCl 15 mM, NAD^+ 0.6 mM, a unit of phosphoglucomutase and another of glucose-6-phosphate dehydrogenase of Leuconostoc mesenteroides, and 30 μL of supernatant resulting from step one were incubated for 20 minutes. The production of NADH was monitored at 340 nm using a Multiskan EX spectrophotometer (Labsystems). […] 40 μL of the supernatant from step 1 were subjected to high affinity liquid chromatography using a DX-500 Dionex system fitted to a Carbo-Pac PA10 column and amperometric detection.

The target in assay [2] is T1, GP of E. coli. Format: biochemical. On the procedure:
The enzymatic reactions were carried out at 37° C. GP activities were measured in the sense of the analysed polyglucan degradation. In a first step, 50 μL of reaction mixture consisting of 50 mM HEPES (pH 7.5), 30 mM phosphate buffer (pH 7.5), polyglucan (equivalent to 10 mM glucose) and protein extract, were incubated for 15 minutes. The reaction was stopped after boiling for 2 minutes and centrifuging at 30,000 g for 20 minutes. The existing released G1P in the supernatant was determined by any of the following methods: • By spectrophotometry. 300 μL of mixture containing Hepes 50 mM pH 7, EDTA 1 mM, MgCl2 2 mM, KCl 15 mM, NAD^+ 0.6 mM, a unit of phosphoglucomutase and another of glucose-6-phosphate dehydrogenase of Leuconostoc mesenteroides, and 30 μL of supernatant resulting from step one were incubated for 20 minutes. The production of NADH was monitored at 340 nm using a Multiskan EX spectrophotometer (Labsystems). […] 40 μL of the supernatant from step 1 were subjected to high affinity liquid chromatography using a DX-500 Dionex system fitted to a Carbo-Pac PA10 column and amperometric detection.
The unit (U) is defined as the amount of enzyme that catalyzes the production of 1 μmol of product per minute.

[3] abbreviates: glucan 5 mM glucose, 30 mM Pi, 3 U recombinant GP, 3 hours, 37° C.
Where [4] appears, read: effector 2 mM, GP activity, no effector = 100.
Setting [5] is: effector 3 mM, GP activity, no effector = 100.
The mark [6] stands for this setting: cell without unit, glucan 5 mM glucose, 3 U recombinant GP, 3 hours, 37° C.

T1 sequence (P0AC86 other isoform, or with tags, fused parts or gaps E280D/L281V): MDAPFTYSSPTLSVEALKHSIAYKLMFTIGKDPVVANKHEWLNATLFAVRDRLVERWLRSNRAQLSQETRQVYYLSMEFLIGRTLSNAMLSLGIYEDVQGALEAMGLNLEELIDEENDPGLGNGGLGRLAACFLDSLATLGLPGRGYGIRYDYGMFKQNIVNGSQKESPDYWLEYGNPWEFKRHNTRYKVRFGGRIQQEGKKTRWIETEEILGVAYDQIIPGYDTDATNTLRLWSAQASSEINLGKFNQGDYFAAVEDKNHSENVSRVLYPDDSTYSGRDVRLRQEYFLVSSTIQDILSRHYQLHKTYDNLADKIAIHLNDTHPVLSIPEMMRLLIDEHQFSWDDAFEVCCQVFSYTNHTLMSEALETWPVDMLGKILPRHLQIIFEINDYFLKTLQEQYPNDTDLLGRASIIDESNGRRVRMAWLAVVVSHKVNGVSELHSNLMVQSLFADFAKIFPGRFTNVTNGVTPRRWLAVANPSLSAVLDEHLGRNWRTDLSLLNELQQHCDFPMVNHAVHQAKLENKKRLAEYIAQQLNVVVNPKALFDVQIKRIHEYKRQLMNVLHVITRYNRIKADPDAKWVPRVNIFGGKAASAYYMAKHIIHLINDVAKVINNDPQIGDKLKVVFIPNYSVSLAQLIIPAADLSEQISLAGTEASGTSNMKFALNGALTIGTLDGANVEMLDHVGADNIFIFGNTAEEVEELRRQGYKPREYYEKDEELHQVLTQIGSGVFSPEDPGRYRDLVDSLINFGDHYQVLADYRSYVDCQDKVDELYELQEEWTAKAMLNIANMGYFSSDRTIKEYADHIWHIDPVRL

`OC[C@H]1O[C@H](O[C@H]2[C@H](O)[C@@H](O)C(O)O[C@@H]2CO)[C@H](O)[C@@H](O)[C@@H]1O` (mixture of isomers) [Maltose]: the “Recognition as substrate by the GP of E. coli” value (“Recognition as substrate” for short) at GP of E. coli [1] was “does not act on”. For the same molecule, on GP of E. coli [1] (setting [3]), the “Products: G1P” value is given as “b.d.l” and the “Products: Maltose” value was 5 mM.
In the case of `O=C(O)[C@H](O)COP(=O)(O)O` [3-phosphoglycerate], at GP of E. coli [2], the “Inhibition of the GP of E. coli” value is “not to be inhibited”. The “Activity (U/mg protein)” value at GP of E. coli [2] (effector 2 mM) turned out to be 8.9 U/mg protein. Besides, the “% control” value on GP of E. coli [2] (setting [4]) stood at 111%.
The matching figures for `Nc1ncnc2c1ncn2[C@@H]1O[C@H](COP(=O)(O)OP(=O)(O)O[C@H]2O[C@H](CO)[C@@H](O)[C@H](O)[C@H]2O)[C@@H](O)[C@H]1O` [ADPG, ADPglucose]: “not to be inhibited”, 8.3 U/mg protein and 104%.
With `Nc1ncnc2c1ncn2[C@@H]1O[C@H](COP(=O)(O)OP(=O)(O)O)[C@@H](O)[C@H]1O` [ADP], the “Inhibition of the GP of E. coli” value at GP of E. coli [2] was “not to be inhibited”. Moreover, the “Activity (U/mg protein)” value at GP of E. coli [2] (effector 2 mM) came out at 7.0 U/mg protein. The “% control” value on GP of E. coli [2] (setting [4]) came to 88%.
With `Nc1ncnc2c1ncn2[C@@H]1O[C@H](COP(=O)(O)O)[C@@H](O)[C@H]1O` [AMP], on GP of E. coli [2], the “Inhibition of the GP of E. coli” value is “not to be inhibited”. At GP of E. coli [2] (effector 3 mM), the “Activity (U/mg protein)” value stood at 7.6 U/mg protein. In addition, the “% control” value at GP of E. coli [2] (setting [5]) is recorded as 95%.
Take `Nc1ncnc2c1ncn2[C@@H]1O[C@H](COP(=O)(O)OP(=O)(O)OP(=O)(O)O)[C@@H](O)[C@H]1O` [ATP]: on GP of E. coli [2], the “Inhibition of the GP of E. coli” value is on record as “not to be inhibited”. For the same molecule, the “Activity (U/mg protein)” value on GP of E. coli [2] (effector 2 mM) stood at 4.8 U/mg protein. In addition, the “% control” value on GP of E. coli [2] (setting [4]) is on record as 60%.
On to `Nc1ncnc2c1ncn2[C@@H]1O[C@@H]2COP(=O)(O)O[C@H]2[C@H]1O` [Cyclic AMP], for which, at GP of E. coli [2], the “% control” value was 91% and the “Activity (U/mg protein)” value was determined as 7.3 U/mg protein.
For the molecule `O=C(COP(=O)(O)O)[C@@H](O)[C@H](O)[C@H](O)COP(=O)(O)O` [Fructose-1,6-bisphosphate], the “Inhibition of the GP of E. coli” value on GP of E. coli [2] is “not to be inhibited”. The “Activity (U/mg protein)” value on GP of E. coli [2] (effector 2 mM) is 9.0 U/mg protein. The “% control” value on GP of E. coli [2] (setting [4]) turned out to be 113%.
For `O=C(CO)[C@@H](O)[C@H](O)[C@H](O)COP(=O)(O)O` [Fructose-6-phosphate], in that order: “not to be inhibited”, 8.4 U/mg protein and 105%.
On to `O=C[C@H](O)[C@@H](O)[C@H](O)[C@H](O)COP(=O)(O)O` [Glucose-6-phosphate], for which the “Inhibition of the GP of E. coli” value at GP of E. coli [2] is “not to be inhibited”. Further, on GP of E. coli [2] (effector 2 mM), the “Activity (U/mg protein)” value turned out to be 7.6 U/mg protein. Moreover, the “% control” value on GP of E. coli [2] (setting [4]) worked out at 95%.
With `OC[C@H]1O[C@H](O[C@H]2[C@H](O)[C@@H](O)[C@@H](O[C@H]3[C@H](O)[C@@H](O)[C@@H](O[C@H]4[C@H](O)[C@@H](O)[C@@H](O[C@H]5[C@H](O)[C@@H](O)[C@@H](O[C@H]6[C@H](O)[C@@H](O)[C@@H](O[C@H]7[C@H](O)[C@@H](O)C(O)O[C@@H]7CO)O[C@@H]6CO)O[C@@H]5CO)O[C@@H]4CO)O[C@@H]3CO)O[C@@H]2CO)[C@H](O)[C@@H](O)[C@@H]1O` (some centres unmarked) [Maltoheptose], the “Recognition as substrate” value on GP of E. coli [1] is “recognizes”. Besides, on GP of E. coli [1] (setting [3]), the “Products: G1P” value came to 2.1 mM, the “Products: Maltoheptose” value came out at 1.3 mM, the “Products: Maltohexose” value was determined as 1 mM and the “Products: Maltopentaose” value came to 0.4 mM. Besides, on GP of E. coli [1] (setting [3]), the “Products: Maltose” value is listed as “b.d.l”, the “Products: Maltotetraose” value turned out to be 0.2 mM and the “Products: Maltotriose” value is on record as “b.d.l”.
As for `OC[C@H]1O[C@H](O[C@H]2[C@H](O)[C@@H](O)[C@@H](O[C@H]3[C@H](O)[C@@H](O)[C@@H](O[C@H]4[C@H](O)[C@@H](O)[C@@H](O[C@H]5[C@H](O)[C@@H](O)[C@@H](O[C@H]6[C@H](O)[C@@H](O)C(O)O[C@@H]6CO)O[C@@H]5CO)O[C@@H]4CO)O[C@@H]3CO)O[C@@H]2CO)[C@H](O)[C@@H](O)[C@@H]1O` (some centres unmarked) [Maltohexose], on GP of E. coli [1], the “Recognition as substrate” value was “recognizes”. The “Products: Maltoheptose” value at GP of E. coli [1] (setting [6]) is recorded as 0.1. Further, on GP of E. coli [1] (setting [3]), the “Products: G1P” value came out at 1.7 mM, the “Products: Maltohexose” value is on record as 2.1 mM, the “Products: Maltopentaose” value was found to be 0.5 mM and the “Products: Maltose” value is on record as “b.d.l”. In addition, at GP of E. coli [1] (setting [3]), the “Products: Maltotetraose” value turned out to be 0.6 mM and the “Products: Maltotriose” value is given as “b.d.l”.
Turning to `OC[C@H]1O[C@H](O[C@H]2[C@H](O)[C@@H](O)[C@@H](O[C@H]3[C@H](O)[C@@H](O)[C@@H](O[C@H]4[C@H](O)[C@@H](O)C(O)O[C@@H]4CO)O[C@@H]3CO)O[C@@H]2CO)[C@H](O)[C@@H](O)[C@@H]1O` (some centres unmarked) [Maltotetraose], the “Recognition as substrate” value on GP of E. coli [1] is given as “does not act on”. For the same molecule, at GP of E. coli [1] (setting [3]), the “Products: G1P” value was “b.d.l”, the “Products: Maltose” value is given as “b.d.l”, the “Products: Maltotetraose” value worked out at 5 mM and the “Products: Maltotriose” value was “b.d.l”.
`O=P(O)(O)OP(=O)(O)O` [Pyrophosphate]: on GP of E. coli [2] (effector 3 mM), the “Activity (U/mg protein)” value was found to be 7.8 U/mg protein. Also, at GP of E. coli [2] (setting [5]), the “% control” value amounted to 98%.
Regarding Glycogen, the “Recognition as substrate” value on GP of E. coli [1] is reported as “recognizes”. At GP of E. coli [1] (setting [3]), the “Products: G1P” value worked out at 0.5 mM, the “Products: Glycogen” value stood at 4.5 mM, the “Products: Maltoheptose” value is “b.d.l” and the “Products: Maltohexose” value is on record as “b.d.l”. In addition, at GP of E. coli [1] (setting [3]), the “Products: Maltopentaose” value is reported as “b.d.l”, the “Products: Maltose” value is “b.d.l”, the “Products: Maltotetraose” value is recorded as “b.d.l” and the “Products: Maltotriose” value is given as “b.d.l”.
For Maltopentaose, on GP of E. coli [1], the “Recognition as substrate” value is on record as “recognizes”. Further, the “Products: Maltohexose” value on GP of E. coli [1] (setting [6]) came out at 0.2. Moreover, on GP of E. coli [1] (setting [3]), the “Products: G1P” value was found to be 1.6 mM, the “Products: Maltoheptose” value was “b.d.l”, the “Products: Maltopentaose” value worked out at 2.2 mM and the “Products: Maltose” value is recorded as “b.d.l”. Moreover, at GP of E. coli [1] (setting [3]), the “Products: Maltotetraose” value amounted to 1.0 mM and the “Products: Maltotriose” value is listed as “b.d.l”.
Consider Maltotriose, for which the “Recognition as substrate” value on GP of E. coli [1] is on record as “does not act on”. Further, at GP of E. coli [1] (setting [3]), the “Products: G1P” value is recorded as “b.d.l”, the “Products: Maltose” value is recorded as “b.d.l” and the “Products: Maltotriose” value is given as 5 mM.
Take starch: the “Recognition as substrate” value on GP of E. coli [1] is recorded as “recognizes”.
